Data taken from ChEMBL document CHEMBL5465560, “Selectivity Literature for EUbOPEN Chemogenomic Library” (2024).

What was measured:
[1] = molecular target: Tyrosine-protein kinase receptor UFO (Homo sapiens) (UniProt P30530); experiment: Selectivity interaction (Kinase panel (Z-LYTE Assay)) EUB0001632a AXL; settings: at 10 µM
[2] = molecular target: Receptor tyrosine-protein kinase erbB-2 (Homo sapiens, UniProt P04626); experiment: Selectivity interaction (Kinase panel (Z-LYTE Assay)) EUB0001632a ERBB2; settings: at 10 µM
[3] = molecular target: Interferon-induced, double-stranded RNA-activated protein kinase (Homo sapiens) (UniProt P19525); experiment: Selectivity interaction (KinomeScan (DiscoverX)) EUB0000607a EIF2AK2; settings: at 10 µM
[4] = molecular target: T1, Ephrin type-B receptor 2 (Homo sapiens) (UniProt P29323); experiment: Selectivity interaction (Kinase screening (Nanosyn)) EUB0000604a EPHB2
T1 sequence (whole entry): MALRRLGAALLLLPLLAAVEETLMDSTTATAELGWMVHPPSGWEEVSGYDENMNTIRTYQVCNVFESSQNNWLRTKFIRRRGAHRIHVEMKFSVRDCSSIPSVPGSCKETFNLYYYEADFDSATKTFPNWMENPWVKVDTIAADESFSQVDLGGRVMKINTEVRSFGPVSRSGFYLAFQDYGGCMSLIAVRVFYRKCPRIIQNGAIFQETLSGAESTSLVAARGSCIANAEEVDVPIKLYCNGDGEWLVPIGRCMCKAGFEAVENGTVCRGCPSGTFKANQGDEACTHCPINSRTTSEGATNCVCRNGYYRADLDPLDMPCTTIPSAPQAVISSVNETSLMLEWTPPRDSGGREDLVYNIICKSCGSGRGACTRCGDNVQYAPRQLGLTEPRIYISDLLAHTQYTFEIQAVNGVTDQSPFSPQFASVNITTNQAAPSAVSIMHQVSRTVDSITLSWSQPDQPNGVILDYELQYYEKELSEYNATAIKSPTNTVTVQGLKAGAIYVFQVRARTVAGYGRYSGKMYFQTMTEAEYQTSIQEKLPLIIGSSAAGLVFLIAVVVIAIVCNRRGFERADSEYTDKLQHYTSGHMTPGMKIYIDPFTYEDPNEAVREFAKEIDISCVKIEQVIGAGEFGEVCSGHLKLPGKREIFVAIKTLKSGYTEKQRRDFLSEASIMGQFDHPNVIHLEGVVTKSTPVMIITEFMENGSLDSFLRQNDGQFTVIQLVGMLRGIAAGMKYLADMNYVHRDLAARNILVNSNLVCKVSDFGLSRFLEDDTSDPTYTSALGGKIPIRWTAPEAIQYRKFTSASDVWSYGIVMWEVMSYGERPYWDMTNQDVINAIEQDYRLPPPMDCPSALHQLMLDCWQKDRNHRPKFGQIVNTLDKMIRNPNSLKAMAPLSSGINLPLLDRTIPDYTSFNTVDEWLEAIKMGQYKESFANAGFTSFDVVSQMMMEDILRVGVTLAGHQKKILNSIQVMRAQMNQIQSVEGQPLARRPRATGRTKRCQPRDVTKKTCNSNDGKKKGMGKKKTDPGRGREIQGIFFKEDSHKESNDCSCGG

[5] = molecular target: MAP kinase-interacting serine/threonine-protein kinase 1 (Homo sapiens) (UniProt Q9BUB5); experiment: Selectivity interaction (KinomeScan (DiscoverX)) EUB0000045b MKNK1
[6] = molecular target: T2, Serine/threonine-protein kinase tousled-like 1 (Homo sapiens) (UniProt Q9UKI8); experiment: Selectivity interaction (KinomeScan (DiscoverX)) EUB0000092b TLK1; settings: at 10 µM
T2 sequence (whole entry): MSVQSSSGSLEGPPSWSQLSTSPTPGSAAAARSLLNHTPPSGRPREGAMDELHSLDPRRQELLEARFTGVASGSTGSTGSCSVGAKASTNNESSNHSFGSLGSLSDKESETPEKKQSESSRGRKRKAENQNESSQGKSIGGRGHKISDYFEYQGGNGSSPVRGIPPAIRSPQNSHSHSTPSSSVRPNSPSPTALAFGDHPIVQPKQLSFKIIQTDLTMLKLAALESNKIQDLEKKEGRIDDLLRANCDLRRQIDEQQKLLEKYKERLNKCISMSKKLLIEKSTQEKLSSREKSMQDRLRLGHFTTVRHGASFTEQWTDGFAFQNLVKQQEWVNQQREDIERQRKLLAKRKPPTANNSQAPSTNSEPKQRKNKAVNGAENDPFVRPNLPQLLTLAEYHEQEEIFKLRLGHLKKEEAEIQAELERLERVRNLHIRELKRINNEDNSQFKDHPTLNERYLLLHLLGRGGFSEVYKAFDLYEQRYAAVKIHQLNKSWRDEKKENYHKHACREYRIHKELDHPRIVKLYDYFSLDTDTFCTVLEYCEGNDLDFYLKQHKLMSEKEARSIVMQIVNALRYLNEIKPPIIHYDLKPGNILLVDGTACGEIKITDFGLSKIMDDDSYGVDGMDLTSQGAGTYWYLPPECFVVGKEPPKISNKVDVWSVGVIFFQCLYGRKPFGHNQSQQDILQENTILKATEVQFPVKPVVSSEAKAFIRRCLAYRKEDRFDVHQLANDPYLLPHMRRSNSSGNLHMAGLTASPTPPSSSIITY

Sequence of MAP kinase-interacting serine/threonine-protein kinase 1 (Homo sapiens) (Q9BUB5 whole entry, looked up): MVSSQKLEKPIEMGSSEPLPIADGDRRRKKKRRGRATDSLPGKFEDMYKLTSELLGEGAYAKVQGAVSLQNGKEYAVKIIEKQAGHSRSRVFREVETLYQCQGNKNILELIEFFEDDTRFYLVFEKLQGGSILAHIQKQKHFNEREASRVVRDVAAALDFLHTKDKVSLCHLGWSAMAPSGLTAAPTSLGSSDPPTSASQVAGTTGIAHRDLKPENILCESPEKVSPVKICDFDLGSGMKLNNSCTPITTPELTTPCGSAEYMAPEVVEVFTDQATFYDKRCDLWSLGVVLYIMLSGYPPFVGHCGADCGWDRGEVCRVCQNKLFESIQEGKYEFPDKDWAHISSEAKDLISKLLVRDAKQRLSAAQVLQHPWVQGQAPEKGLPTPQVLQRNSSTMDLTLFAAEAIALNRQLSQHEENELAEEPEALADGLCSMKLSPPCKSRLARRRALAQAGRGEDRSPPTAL
Sequence of Tyrosine-protein kinase receptor UFO (Homo sapiens) (P30530 whole entry): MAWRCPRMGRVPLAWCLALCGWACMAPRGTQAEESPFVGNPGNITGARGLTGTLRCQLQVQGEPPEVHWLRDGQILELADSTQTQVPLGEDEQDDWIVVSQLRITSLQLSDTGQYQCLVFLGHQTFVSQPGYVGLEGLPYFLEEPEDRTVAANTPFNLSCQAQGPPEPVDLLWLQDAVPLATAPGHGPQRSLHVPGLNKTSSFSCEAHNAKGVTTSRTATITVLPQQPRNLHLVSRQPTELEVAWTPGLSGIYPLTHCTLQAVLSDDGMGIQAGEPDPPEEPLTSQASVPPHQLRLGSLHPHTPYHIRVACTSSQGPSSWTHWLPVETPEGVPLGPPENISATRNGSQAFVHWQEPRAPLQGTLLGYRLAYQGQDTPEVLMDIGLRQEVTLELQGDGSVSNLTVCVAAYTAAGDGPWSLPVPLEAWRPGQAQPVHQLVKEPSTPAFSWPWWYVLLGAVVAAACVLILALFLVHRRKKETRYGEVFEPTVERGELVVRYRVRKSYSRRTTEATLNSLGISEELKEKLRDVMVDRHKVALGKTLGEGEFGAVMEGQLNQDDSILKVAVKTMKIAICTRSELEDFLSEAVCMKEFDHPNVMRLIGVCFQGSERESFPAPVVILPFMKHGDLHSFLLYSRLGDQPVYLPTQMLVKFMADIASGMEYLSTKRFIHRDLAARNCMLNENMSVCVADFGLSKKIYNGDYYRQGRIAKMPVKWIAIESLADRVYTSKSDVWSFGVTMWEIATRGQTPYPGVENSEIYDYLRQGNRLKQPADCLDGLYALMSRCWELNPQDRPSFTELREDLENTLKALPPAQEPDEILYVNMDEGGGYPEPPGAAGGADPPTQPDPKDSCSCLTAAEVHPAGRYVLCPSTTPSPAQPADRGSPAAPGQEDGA
Sequence of Interferon-induced, double-stranded RNA-activated protein kinase (Homo sapiens) (P19525 whole entry): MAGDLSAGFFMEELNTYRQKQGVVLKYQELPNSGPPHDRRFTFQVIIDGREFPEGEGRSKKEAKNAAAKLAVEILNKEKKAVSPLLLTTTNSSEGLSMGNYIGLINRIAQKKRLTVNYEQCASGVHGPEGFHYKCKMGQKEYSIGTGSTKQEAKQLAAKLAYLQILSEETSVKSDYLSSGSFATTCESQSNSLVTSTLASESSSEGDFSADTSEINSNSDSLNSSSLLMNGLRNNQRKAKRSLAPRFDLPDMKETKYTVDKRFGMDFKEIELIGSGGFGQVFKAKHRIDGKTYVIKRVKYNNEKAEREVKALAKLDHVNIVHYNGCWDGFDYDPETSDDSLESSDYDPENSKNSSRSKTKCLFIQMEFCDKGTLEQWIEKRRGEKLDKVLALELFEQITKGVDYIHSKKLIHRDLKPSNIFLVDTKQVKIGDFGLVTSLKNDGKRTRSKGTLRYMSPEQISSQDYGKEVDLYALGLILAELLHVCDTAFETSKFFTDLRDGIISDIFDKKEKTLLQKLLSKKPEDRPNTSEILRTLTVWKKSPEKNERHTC
Sequence of Receptor tyrosine-protein kinase erbB-2 (P04626 whole entry): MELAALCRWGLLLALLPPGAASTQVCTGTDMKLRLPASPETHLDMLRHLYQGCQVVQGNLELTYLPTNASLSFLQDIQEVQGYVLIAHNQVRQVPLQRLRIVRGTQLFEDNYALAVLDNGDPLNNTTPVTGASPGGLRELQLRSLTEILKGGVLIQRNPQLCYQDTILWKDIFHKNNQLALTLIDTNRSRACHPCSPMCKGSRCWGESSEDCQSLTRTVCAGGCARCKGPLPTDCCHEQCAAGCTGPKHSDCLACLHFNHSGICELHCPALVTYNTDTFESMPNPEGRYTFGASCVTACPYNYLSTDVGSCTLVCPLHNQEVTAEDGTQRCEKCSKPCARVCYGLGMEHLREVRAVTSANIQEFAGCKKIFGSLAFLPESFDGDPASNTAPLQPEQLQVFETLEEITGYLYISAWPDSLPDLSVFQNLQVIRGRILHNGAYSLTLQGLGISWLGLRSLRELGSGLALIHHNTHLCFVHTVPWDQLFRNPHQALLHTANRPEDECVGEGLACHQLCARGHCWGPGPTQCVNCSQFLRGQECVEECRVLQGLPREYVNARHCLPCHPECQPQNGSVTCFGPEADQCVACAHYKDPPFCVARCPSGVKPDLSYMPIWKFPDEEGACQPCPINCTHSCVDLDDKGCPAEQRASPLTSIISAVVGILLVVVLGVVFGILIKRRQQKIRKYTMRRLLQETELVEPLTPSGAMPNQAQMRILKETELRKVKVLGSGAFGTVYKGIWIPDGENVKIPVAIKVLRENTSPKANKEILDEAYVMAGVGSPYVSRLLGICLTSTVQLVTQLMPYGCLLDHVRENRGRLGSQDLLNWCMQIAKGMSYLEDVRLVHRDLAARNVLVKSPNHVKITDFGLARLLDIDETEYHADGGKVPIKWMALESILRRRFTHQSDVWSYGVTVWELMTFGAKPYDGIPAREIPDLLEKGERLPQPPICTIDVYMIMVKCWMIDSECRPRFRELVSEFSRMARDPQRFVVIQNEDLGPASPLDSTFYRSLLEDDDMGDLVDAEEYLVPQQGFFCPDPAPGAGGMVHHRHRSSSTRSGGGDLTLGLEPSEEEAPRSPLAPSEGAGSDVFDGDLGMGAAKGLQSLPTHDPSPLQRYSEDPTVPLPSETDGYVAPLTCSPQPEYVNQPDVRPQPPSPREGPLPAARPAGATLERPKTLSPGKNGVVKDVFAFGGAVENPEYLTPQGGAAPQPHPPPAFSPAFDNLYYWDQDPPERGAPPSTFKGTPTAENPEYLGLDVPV

Cn1cc(-n2cnc3c(NCc4nc5cc(Cl)c(Cl)cc5[nH]4)nc(N4CCOCC4)nc32)cn1
% of control [1]: 2.06%
% of control [2]: -0.819%

CNC(=O)Nc1ccc(-c2nc(N3CC4CCC(C3)O4)c3cnn(C4CCC5(CC4)OCCO5)c3n2)cc1
% of control [3]: 100%

Cc1cnc(Nc2ccc(F)cc2Cl)nc1-c1c[nH]c(C(=O)N[C@H](CO)c2cccc(Cl)c2)c1
% of inhibition [4]: 0%

C=CC(=O)Nc1cc(-n2c(=O)ccc3cnc4ccc(-c5ccc(NS(C)(=O)=O)cc5)cc4c32)ccc1C
% of control ([5]; at 1 µM): 100%
% of control ([5]; at 10 µM): 100%

CCC(=O)N1CCN(c2ccc(-n3c(=O)ccc4cnc5ccc(-c6cnc7ccccc7c6)cc5c43)cc2C(F)(F)F)CC1
% of control [6]: 100%
